The text below walks through data of ChEMBL document CHEMBL1130550, “Sch 207278: a novel farnesyl protein transferase inhibitor from an unidentified fungus” (Bioorg Med Chem Lett, 1997).

pIC50: −log10 of the molar value.

In general, pIC50 refers to −log10 of the IC50, conventionally taken in molar units. A low value points to a large IC50.

Experiment [1] addresses Protein farnesyltransferase (Homo sapiens, UniProt P49354+P49356). Description: Inhibition of Farnesyltransferase. The class given is protein-complex assay.
A short description of experiment [2]: Inhibition of Geranylgeranyl transferase type I. The arrangement: species or system Homo sapiens.

In the case of `O=Cc1cc(O)c(C=O)c(C(=O)c2cccc(O)c2O)c1`, the pIC50 in experiment [1] is 5.46; in experiment [2], 4.15.

In the case of `CC(=O)Oc1cc(C=O)cc(C(=O)c2cccc(OC(C)=O)c2OC(C)=O)c1C=O`, the pIC50 is 5.62 in experiment [1] and 4.07 in experiment [2].
